# From patent US20230398220A1, “SIRNA-NANOBOWL-MEDIATED INTERVENTION OF COVID-19” (THE REGENTS OF THE UNIVERSITY OF CALIFORNIA, priority 2020, published 2023)
# Tested on: HEK 298 cell line
# Assay: MTT viability of HEK cells treated with nanobowls pre-loaded with siRNA and dexamethasone
# Conditions: normalized to untreated control
smiles,measurement,value
C[C@@H]1C[C@H]2[C@@H]3CCC4=CC(=O)C=C[C@]4(C)[C@@]3(F)[C@@H](O)C[C@]2(C)[C@@]1(O)C(=O)CO [dexamethasone],cell viability (MTT),cell viability decreased
